# Assay results taken from patent publication US20210115000A1, “NILE RED DERIVATIVES FOR IMPROVED RATIOMETRIC IMAGING FOR NERVE SPECIFIC CONTRAST” (Oregon Health & Sciences University, priority 2018, published 2021).
# Experiments:
# [1] = Spectroscopic analysis: absorbance, emission and quantum yield of Nile Red derivatives; type: physicochemical; settings: in DMSO
# Protocol: Tandem liquid chromatography mass spectroscopy (LCMS) analysis (Agilent 1260 LC system with a 6224 time of flight (TOF) MS, Agilent, Santa Clara, Calif.) was performed using a 2.7 micron C18 column (4.6×50 mm, Agilent). High performance liquid chromatography (HPLC) purification (Agilent 1260 system with a preparative pump) was performed using a 5 micron C18 column (21.2×150 mm, Agilent). For both HPLC and LCMS, the mobile phase consisted of HPLC grade acetonitrile and water, treated with 0.1% formic acid. Spectroscopic analysis was performed on a Spectramax M5 spectrometer (Molecular Devices, Sunnyvale, Calif.) using a quartz cuvette with a 1 cm pathlength. Quantum yield was calculated according to equation (1).
# Where Ø is the quantum yield, F is the integrated fluorescence intensity, f is the absorbance at the excitation wavelength and n is the refractive index of the solvent. S refers to the quantum yield standard (Rhodamine B)^25 and X refers to the unknown sample.
# [2] = test system: U2OS human osteosarcoma cell line; assay: Nile Red derivative cell staining and imaging, fixed and live cells; type: cell-based; settings: U2OS live, 1 μM, 5 min, imaged in staining solution
# Protocol: The U2OS human osteosarcoma cell line was cultured in Dulbecco's Modified Eagle Medium (DMEM, Thermo Fisher Scientific, Waltham, Mass.) with 10% fetal bovine serum (FBS, VWR, Radnor, Pa.) and 1% Penicillin/Steptomycin 100× (Thermo Fisher Scientific) at 37° C. in 5% CO2. For live cell imaging studies, Fluorobrite DMEM media (Thermo Fisher Scientific) was used in place of DMEM. For imaging studies, cells were grown in 96-well glass bottom plates (Cellvis, Mountain View, Calif.) for 48 hours, with a final confluence of <80%. Nile Red and its derivatives were prepared at 1-10 mM stock concentration in DMSO and diluted into media or buffer for cell staining and imaging studies.
# Cell staining studies were completed on fixed and live U2OS cells using Nile Red and each synthesized Nile Red derivative described as follows. For fixed cell staining, cells were washed once with 1× phosphate buffered saline (PBS), then fixed with 4% paraformaldehyde (PFA) for 20 minutes at room temperature. The PFA was removed and each well was washed three times for 5 mins per wash (3×5 mins) with 1×PBS. The Nile Red fluorophores were diluted into 1×PBS to a final concentration of 1 μM, incubated for 5 minutes with the cells, and images were collected without washing. Live cell staining was completed using two methods. First, cells were washed once with Fluorobrite DMEM. The Nile Red fluorophore solution was prepared in Fluorobrite DMEM by diluting to a final concentration of 1 μM for staining, where cells were stained for 5 minutes. The fluorophore containing media was removed and the cells were fixed for 20 minutes using 4% PFA. Cells were then washed 3×5 mins with Fluorobrite DMEM prior to imaging. Second, cells were washed with Fluorobrite DMEM without FBS once for 5 minutes. Nile Red fluorophore solutions were prepared in Fluorobrite without FBS at 1 μM final concentration for cell staining. The cells were stained with the prepared solution for 5 minutes and imaged in the staining solution. All images were collected at their ideal exposure times to permit visualization of stained intracellular structures.
# All ex vivo and cellular fluorescence and white light images were collected using a Zeiss AxioObserver inverted fluorescence microscope (Carl Zeiss, Oberkochen, Germany). All cell images were collected at 40× magnification and all tissue section images were collected at 10× magnification. Fluorescence excitation was completed using a Photofluor II broad band light source (89 North, Burlington, Vt.) filtered with a 545±12.5 nm bandpass excitation filter. Fluorescence images were collected using a 605±35 nm bandpass emission filter and a AxioCam 506 monochromo camera (Zeiss). All Filters were Purchased from Chroma Technologies (Bellows Falls, Vt.).
# [3] = test system: CD-1 mouse sciatic nerve and surrounding muscle and adipose tissues; assay: Ex vivo tissue section staining, imaging and fluorescence quantification; settings: 100 μM, 40 min, sections with nerve, muscle, adipose
# Protocol: Cryosections of CD-1 mouse sciatic nerve and surrounding muscle and adipose tissues from unrelated experiments were cut from optimal cutting temperature (OCT, Fisher Scientific, Hampton, N.H.) embedded frozen tissues. Cryosectioned tissues were captured on superfrost plus slides (Fisher Scientific) at 10 μm thickness. The tissue sections were washed with 1×PBS for 2 minutes to remove OCT, and then fixed with 2% PFA for 15 mins. The tissue sections were then washed with 0.1% Tween 20 in 1×PBS (3×5 mins), followed by incubation with 100 μM of Nile Red and each Nile Red derivative formulated using 10% DMSO, 5% Kolliphore (Sigma Aldrich, St. Louis, Mo.), 63.75% FBS, and 21.25% 1× PBS as previously described.^26 Tissue sections were incubated with the formulated fluorophores for 40 minutes at room temperature, followed by washing with blank formulation not containing fluorophore (2×5 mins). Each tissue section was then washed with 1×PBS (2×5 mins), fixed for 15 minutes using 2% PFA, followed by a final wash with 1×PBS for 5 mins before mounting in glycerol (Fisher Scientific). Images were collected at an exposure time of 650 ms for all Nile Red and Nile Red derivative stained sections. Four tissue sections were stained for Nile Red and each Nile Red derivative, facilitating adipose to muscle and adipose to nerve contrast ratio quantification where tissue intensities were quantified using region of interest analysis with custom written MatLab code (The MathWorks, Natick, Mass.). For each tissue type, a representative area was selected, where a threshold based mask was set to determine tissue from background. The mean tissue intensity was calculated in adipose, nerve and muscle tissues as the intensity per second and used to calculate the adipose to nerve and adipose to muscle contrast ratios. All ex vivo and cellular fluorescence and white light images were collected using a Zeiss AxioObserver inverted fluorescence microscope (Carl Zeiss, Oberkochen, Germany). All cell images were collected at 40× magnification and all tissue section images were collected at 10× magnification. Fluorescence excitation was completed using a Photofluor II broad band light source (89 North, Burlington, Vt.) filtered with a 545±12.5 nm bandpass excitation filter. Fluorescence images were collected using a 605±35 nm bandpass emission filter and a AxioCam 506 monochromo camera (Zeiss). All Filters were Purchased from Chroma Technologies (Bellows Falls, Vt.).
# [4] = test system: sciatic nerve or brachial plexus nerve sites (adipose, nerve, muscle tissue); assay: In vivo imaging following direct/topical administration on rodent nerve sites; set-up: species or system male CD-1 mice; settings: immediately following direct administration
# Description: In vivo images were acquired using a previously published, custom-built small animal fluorescence imaging system, described briefly here.^27 Fluorescent images were obtained using a Qimaging EXi Blue monochrome camera (Surrey, British Columbia, CA) with a removable Bayer mask for collection of co-registered color and fluorescence images. A Photofluor II broad band light source (89 North) was expanded onto the surgical field through a liquid light guide and used unfiltered for white light illumination. Nile Red and NR5 were excitated using a 545 t 12.5 nm bandpass filter, while fluorescence emission images were collected with a 605±35 nm bandpass filter. Oxazine 4 (Exciton, West Chester, Ohio) was used for nerve and adipose co-staining and ratiometic imaging studies. Oxazine 4 was excited using a 620±30 nm bandpass filter, while fluorescence emission images were collected through a 700±37.5 nm bandpass filter. Approval for the use of animals in the study was obtained from the Institutional Animal Care and Use Committee (IACUC) at Oregon Health and Science University (OHSU). In vivo staining studies were carried out on male CD-1 mice using an optimized direct/topical administration protocol.^2 Staining was performed concurrently on no more than two nerve sites (sciatic nerve or brachial plexus) per mouse. Nile Red and all Nile Red derivatives were formulated in a previously published co-solvent formulation (10% DMSO, 5% Kolliphor, 63.75% serum and 21.25% PBS^14) at a final concentration of 100 μM. Each formulated fluorophore was incubated for 5 minutes on the nerve site (n=4 nerve sites/fluorophore), followed by 9 short flushes with PBS. The nerve site was then incubated with blank co-solvent not containing fluorophore for 5 minutes, followed again by 9 short flushes with PBS.
smiles,measurement,setting,value
"CCN(CC)c1ccc2nc3c4cc(-c5ccc(C#N)cc5)ccc4c(=O)cc-3oc2c1 [NR12, 4-(9-(diethylamino)-5-oxo-5H-benzo[a]phenoxazin-2-yl)benzonitrile]",Max Abs,[1],560 nm
same,Max Em,[1],635 nm
same,Stokes Shift,[1],75 nm
same,structures observed in live cells without washing,[2],Prominent lipid droplet like structures
same,tissue staining specificity on mouse tissue sections,[3],adipose specificity
same,adipose to muscle ratio,[4],"lower than Nile Red, adipose to muscle contrast was similar"
same,adipose to nerve ratio,[4],increased contrast over control autofluorescence with similar adipose to nerve contrast
